# Reference: US7855300B2, “Bis(trimethylsilyl)phenyl compound or salt thereof, and use thereof” (Taiho Pharmaceutical Co., Ltd., priority 2007, dated 2010)
# Assays:
# [1] = tested on: JHH-7 (human hepatocellular carcinoma cell lines); test: Antitumor effect in JHH-7 orthotopic liver transplantation model; format: in vivo, male nude mice (BALB/cA Jcl-nu); settings: 16 mg/kg orally once per day for 14 days; tumor weight on 15th day; T/C×100
# Method: RARα high expression cells, i.e., human hepatocellular carcinoma cell lines JHH-7, were implanted in the outside left lobe of the liver of male nude mice (BALB/cA Jcl-nu; CLEA Japan, Inc.) under Nembutal anesthesia in an amount of 1×10^6 cells (0.02 ml) per mouse. On the 11th to 14th day after implantation, the mice were divided into groups, each consisting of seven mice. The compounds of the present invention and the reference compound TAC-101 were suspended in 0.5% HPMC and 1.6 mg/ml solution was orally administered to the mice at a liquid dose of 10 ml/kg, namely, at a dose of 16 mg/kg, once per day for 14 days. On the 15th day after the start of administration, the mice were exsanguinated to death under ether anesthesia. Tumors formed in the outside left lobe of the liver were extracted, and the tumor weight was measured to assess the antitumor effect. The antitumor effect was evaluated by calculating the tumor growth rate (%) using the following equation. The antitumor effect of each compound was analyzed by Student's test and statistical significance was determined. Tumor growth rate(%)=T/C×100 T: Average tumor weight in the groups administered with the test compounds C: Average tumor weight in the groups not administered with test compounds
# [2] = Rat toxicity test, oral administration for 4 weeks; format: in vivo, male SD rats; parameters: key: +: recognized; −: not observed
# Method: The compounds of the present invention and the reference compound TAC-101 were orally administered to male SD rats (CLEA Japan, Inc.) for 4 weeks. The dosage of each compound was 6 mg/kg or 24 mg/kg per rat. Differences in toxic symptoms were compared and studied.
# [3] = tested on: Human prostatic carcinoma cell lines TSU-Pr1; test: Growth inhibitory and differentiation-inducing effect on prostate cancer cells; format: cell-based; settings: 10 μM, IGF-I 10 ng/ml; for Change in cell shape (differentiation-inducing activity): after three days, FIG. 4; for Cytostatic activity (crystal violet staining): 7th day after culturing, FIG. 5
# Method: Human prostatic carcinoma cell lines TSU-Pr1 prepared in RPMI1640 culture medium containing 2% fetal bovine serum were plated into a 24-well culture plate at a cell density of 3×10^3 cells per well. The next day, IGF-I (10 ng/ml) was added as a growth factor, and the cells were treated with Compounds 2 and 3 of the present invention and the reference compound TAC-101 each in an amount of 10 μM. Change in cell shape after three days was observed. Moreover, on the 7th day after culturing, the cells were fixed with 25% glutaraldehyde solution. Cytostatic activity was determined by the crystal violet staining method, and the statistical significance of the cytostatic activity was analyzed by Student's test. […] In the Control group that was not treated with medicine, a cobblestone-like shape and vigorous cell division were observed. Such cell shape is characteristic of epithelioid cancer cells.
# [4] = tested on: Human prostatic carcinoma cell lines TSU-Pr1; test: Cancer malignancy-reducing effect (tumorigenicity of pretreated TSU-Pr1 cells implanted in nude mice); format: in vivo, male nude mice (BALB/cA Jcl-nu); settings: cells treated 72 hours, six subcutaneous sites, 26th day after implantation
# Method: Human prostatic carcinoma cell lines TSU-Pr1 were treated with Compound 3 of the present invention and the reference compound TAC-101 for 72 hours. The cells were subcutaneously implanted into male nude mice (BALB/cA Jcl-nu; CLEA Japan, Inc.) at six sites in total per mouse. On the 26th day after implantation, the rate of subcutaneous tumor formation was observed and the effect of reducing cancer malignancy was evaluated. Statistical significance was analyzed by Wilcoxon test.
# [5] = tested on: non-small cell lung cancer; settings: phase I study, Non-Patent Document 5; cited from earlier work
melting point,SMILES,Tumor Growth Rate (%) [1] [%],Alopecia Symptom ([2]; 6 mg/kg),Endocortical Proliferation ([2]; 6 mg/kg),Alopecia Symptom ([2]; 24 mg/kg),Endocortical Proliferation ([2]; 24 mg/kg),Change in cell shape (differentiation-inducing activity) [3],Graft Survival (%) [4] [%],Tumor Formation [4],Clinical response [5],Side effects [5],Cytostatic activity (crystal violet staining) [3]
,"C/C(=C\C(=O)O)c1ccc(NC(=O)c2cc([Si](C)(C)C)cc([Si](C)(C)C)c2)cc1F [Compound 11, (E)-3-[4-[[3,5-Bis(trimethylsilyl)benzoyl]amino]-2-fluorophenyl]-2-butenoic acid]",36,,,,,,,,,,
,"C/C(=C\c1ccc(NC(=O)c2cc([Si](C)(C)C)cc([Si](C)(C)C)c2)cc1F)C(=O)O [Compound 14, (E)-3-[4-[[3,5-Bis(trimethylsilyl)benzoyl]amino]-2-fluorophenyl]-2-methylacrylic acid]",,−,−,−,−,,,,,,
302 °C (dec.),C[Si](C)(C)c1cc(C(=O)Nc2ccc(/C=C/C(=O)O)cn2)cc([Si](C)(C)C)c1,,,,,,,,,,,
,"C[Si](C)(C)c1cc(C(=O)Nc2ccc(C(=O)O)cc2)cc([Si](C)(C)C)c1 [TAC-101, 4-[3,5-bis(trimethylsilyl)benzamido]benzoic acid, reference compound]",52,+,−,+,+,no significant change was recognized in the shape,67,4/6,complete remission cases were reported,symptoms (skin disorders) similar to hypervitaminosis A were observed,
,"C[Si](C)(C)c1cc(C(=O)Nc2ccc(/C=C/C(=O)O)cc2)cc([Si](C)(C)C)c1 [Compound 3, 4-[[3,5-Bis(trimethylsilyl)benzoyl]amino]cinnamic acid]",25,−,−,−,−,dramatic change was recognized in the shape of neuroid cells,17,1/6,,,dramatic cytostatic effect was recognized
,"C/C(=C\C(=O)O)c1ccc(NC(=O)c2cc([Si](C)(C)C)cc([Si](C)(C)C)c2)cc1 [Compound 6, (E)-3-[4-[[3,5-Bis(trimethylsilyl)benzoyl]amino]phenyl]-2-butenoic acid]",31,,,,,,,,,,
,"C[Si](C)(C)c1cc(C(=O)Nc2ccc(/C=C/C(=O)O)c(F)c2)cc([Si](C)(C)C)c1 [Compound 2, 4-[[3,5-Bis(trimethylsilyl)benzoyl]amino]-2-fluorocinnamic acid]",21,−,−,−,−,dramatic change was recognized in the shape of neuroid cells,,,,,dramatic cytostatic effect was recognized
